Measured values taken from patent US20070191493A1, “Use of n-alkanols as activators of the cftr channel” (priority 2003, published 2007).

Molecular target: T1, ΔF508 mutated CFTR channel (Homo sapiens, UniProt P13569, DEL508-508)
T1 construct: epithelial cells extracted from respiratory airways of patients suffering from cystic fibrosis (homozygous ΔF508); endogenous in cells; host or cells: JME/CF15 human airway epithelial cells (homozygous ΔF508)
Test: iodide efflux in JME/CF15 human bronchial epithelial cells from cystic fibrosis patients
Assay type: cell-based
Conditions: JME/CF15 cells
Method: The CFTR studies are also carried out on Calu-3 cells (ATCC No. HTB-55), which are human pulmonary epithelial cells endogenously expressing the CFTR channel. These cells are cultured under the same culture conditions as the CHO cells. The study of the mutated CFTR channel is carried out on JME/CF15 cells, which are epithelial cells extracted from respiratory airways of patients suffering from cystic fibrosis (homozygous ΔF508) (Jefferson et al., 1990). These cells therefore express the ΔF508 mutated CFTR channel. These cells are cultured under the same conditions as above, but the culture medium is supplemented with a hormone mixture containing: adenine (180 μM), insulin (5 μg/ml), transferrin (5 μg/ml), hydrocortisone (1.1 μM), triiodothyronine (2 nM), epinephrine (5.5 μM), epidermal growth factor (1.64 nM).
This technique makes it possible to follow the kinetics of exit of the ^125I radioactive iodide. The cells are cultured in 24-well plates with a dilution to 1/10 after passage. On the fourth day of culture, the drugs to be tested are dissolved in solution according to the desired concentration, at 37° C., in medium B, at pH 7.4, containing, in mM: 137 NaCl, 5.36 KCl, 0.8 mM MgCl2, 1.8 mM CaCl2, 5.5 glucose and 10 HEPES-NaOH. The wells are washed 4 times with 500 μl of medium B. The solution is subsequently replaced with 500 μl of loading solution containing 1 μM KI and 0.5 μCi of ^125INa/ml for 30 min. The kinetics of exit of ^125I are determined after having eliminated the loading solution and washed the wells 4 times with 500 μl of medium B. For the ^125I exit kinetics, 500 μl of medium B containing or not containing the molecules to be tested are incubated for 30 sec in the wells and recovered in a hemolysis tube, so as to be replaced with 500 μl of medium B containing or not containing the molecules to be tested. The operation is repeated every 30 s for 2 to 6 min. At the end of the efflux, the intracellular ions are extracted by adding 1 ml of trichloroacetic acid (7.5%) to the cell layer. All the samples are counted in a gamma counter (Kontron). The precipitated proteins are solubilized in 0.1N NaOH and quantified using a calorimetric test.
The tracer contained in the cell layer at the beginning of the efflux is calculated as the sum of the samples and of the extracts counted. The efflux curves are constructed by expressing the percentage of the content remaining in the cell layer (I %) with respect to time. The stimulated or nonstimulated efflux rate constants (k, min^−1) are determined by smoothing the efflux curves to a monoexponential function I %=100*exp(−kt) using a linear regression of the neperian logarithm of the data, k is used to calculate the iodide released into the medium with respect to time. The hypothesis is made that, in the presence of a stimulator, the efflux is the sum of two iodide effluxes occurring in parallel: a basal efflux and a stimulated efflux characterized, respectively, by the constants kb and ks. The total net efflux is then described by the equation It^%=100*(1−exp(−ktt)) where kt is the sum of kb and ks. Finally, ks calculated as kt−kb is used to establish a dose-response relationship for antagonists. The data is expressed as means ±SD, and the t-test is used to determine the significances. […] Y begins at the basal level and progresses to the plateau (Ymax), X is the concentration and the half-effect values (EC are calculated using GraphPad Prism v3.0 (GraphPad software)).

T1 sequence (P13569 with tags, fused parts or gaps DEL508-508): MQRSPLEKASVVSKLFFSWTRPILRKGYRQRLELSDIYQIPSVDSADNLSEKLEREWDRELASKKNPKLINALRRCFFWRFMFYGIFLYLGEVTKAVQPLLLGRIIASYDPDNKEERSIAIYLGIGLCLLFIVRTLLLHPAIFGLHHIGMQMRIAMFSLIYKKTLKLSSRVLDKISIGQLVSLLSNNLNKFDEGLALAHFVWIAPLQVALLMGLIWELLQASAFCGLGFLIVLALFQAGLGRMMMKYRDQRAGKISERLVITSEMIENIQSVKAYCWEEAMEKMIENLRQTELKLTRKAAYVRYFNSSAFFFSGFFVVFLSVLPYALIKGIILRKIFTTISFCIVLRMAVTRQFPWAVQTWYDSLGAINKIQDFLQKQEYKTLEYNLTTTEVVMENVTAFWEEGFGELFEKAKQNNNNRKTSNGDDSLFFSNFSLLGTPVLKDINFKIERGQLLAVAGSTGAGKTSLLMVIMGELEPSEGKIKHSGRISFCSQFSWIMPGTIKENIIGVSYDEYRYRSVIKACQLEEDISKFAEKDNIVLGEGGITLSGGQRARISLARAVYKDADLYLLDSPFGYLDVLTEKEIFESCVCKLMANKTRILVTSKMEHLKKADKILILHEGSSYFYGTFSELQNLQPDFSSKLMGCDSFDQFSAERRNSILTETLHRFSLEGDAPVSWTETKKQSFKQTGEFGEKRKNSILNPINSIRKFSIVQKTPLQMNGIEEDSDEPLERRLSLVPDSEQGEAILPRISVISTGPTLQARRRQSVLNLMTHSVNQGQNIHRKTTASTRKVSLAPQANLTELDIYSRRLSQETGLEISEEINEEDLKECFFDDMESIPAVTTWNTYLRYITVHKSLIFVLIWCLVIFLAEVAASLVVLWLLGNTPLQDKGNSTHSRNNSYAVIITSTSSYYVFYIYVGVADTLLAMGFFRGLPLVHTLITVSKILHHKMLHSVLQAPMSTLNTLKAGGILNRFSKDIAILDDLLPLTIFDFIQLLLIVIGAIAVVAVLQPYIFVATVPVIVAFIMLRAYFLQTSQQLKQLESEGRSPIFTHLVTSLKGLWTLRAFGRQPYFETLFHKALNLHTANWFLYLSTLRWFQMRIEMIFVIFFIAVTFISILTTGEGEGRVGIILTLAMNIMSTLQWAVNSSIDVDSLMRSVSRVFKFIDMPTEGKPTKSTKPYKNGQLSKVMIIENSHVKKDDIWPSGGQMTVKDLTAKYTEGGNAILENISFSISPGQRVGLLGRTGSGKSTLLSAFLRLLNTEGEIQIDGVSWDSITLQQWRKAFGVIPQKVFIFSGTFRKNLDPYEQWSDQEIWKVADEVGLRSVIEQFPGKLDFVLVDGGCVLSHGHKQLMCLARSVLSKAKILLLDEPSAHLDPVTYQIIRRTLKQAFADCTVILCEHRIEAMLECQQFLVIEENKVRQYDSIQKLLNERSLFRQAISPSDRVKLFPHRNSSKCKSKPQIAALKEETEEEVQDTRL

SMILES: CCCCCCCCO [octan-1-ol]
- effect on the basal level when the mutated channel is not present at the plasma membrane: has no effect on the basal level
- activation of ΔF508 mutated CFTR channel, in words (1 mM): specifically activates the ΔF508 mutated CFTR channel
- activation of mutated CFTR-ΔF508 channel as share of maximum activity (10 μM FSK+30 μM genistein = 100%) (octan-1-ol 1 mM): approximately 50%
